From publication PMC2892103 (Journal of molecular biology, 2010)

Biological target: T1, E. coli TrmD (Escherichia coli, UniProt P0A873)
T1 sequence (P0A873 1-255): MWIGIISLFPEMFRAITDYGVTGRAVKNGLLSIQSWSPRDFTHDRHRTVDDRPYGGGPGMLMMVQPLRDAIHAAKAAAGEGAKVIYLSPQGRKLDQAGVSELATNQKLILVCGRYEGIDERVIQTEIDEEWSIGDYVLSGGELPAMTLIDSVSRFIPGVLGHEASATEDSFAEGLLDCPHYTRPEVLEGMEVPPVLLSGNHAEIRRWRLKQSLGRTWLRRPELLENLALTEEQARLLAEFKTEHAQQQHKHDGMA
Test: intrinsic tryptophan fluorescence quenching, quadratic fit
Assay type: binding

Kd [nM] | SMILES
330 ± 40 | Nc1ncnc2c1ncn2[C@@H]1O[C@H](CSCC[C@H](N)C(=O)O)[C@@H](O)[C@H]1O [AdoHcy]
1100 ± 200 | C[S+](CC[C@H](N)C(=O)O)C[C@H]1O[C@@H](n2cnc3c(N)ncnc32)[C@H](O)[C@@H]1O (some centres unmarked) [AdoMet]
